The record followed here is the NIST ThermoML archive (doi:10.1021/je400630f).

For data set [1] the following is noted: 100 kPa, Liquid; for viscosity: Capillary tube (Ostwald / Ubbelohde) method.
The nature of data set [2]: xn = mol fraction of the nth substance listed. To be noted: 100 kPa, Liquid, x1 = 1; for viscosity: Capillary tube (Ostwald / Ubbelohde) method.

Where “and” joins values, the source holds several entries; their conditions need not be identical. Identical values can stand only once. Numbers after ± are expanded uncertainties.

A word on the mass density: it is mass per unit of volume. One may read the viscosity as the resistance of a fluid to flow. In the case of `CCCCO` [butan-1-ol], the mass density in data set [1] (283.15 K) is reported as 817.3 ± 1.2 kg/m3; in data set [1] (293.15 K) it was 809.6 ± 1.3 kg/m3; in data set [1] (298.15 K), 805.8 ± 1.3 kg/m3; in data set [1] (303.15 K) it was 802.1 ± 1.3 kg/m3; in data set [1] (313.15 K) it was 794.3 ± 1.3 kg/m3. The viscosity in data set [1] (283.15 K) came to 3.822 ± 0.079 mPa·s; in data set [1] (293.15 K), 2.859 ± 0.059 mPa·s; in data set [1] (298.15 K), 2.558 ± 0.053 mPa·s; in data set [1] (303.15 K) it was 2.236 ± 0.046 mPa·s; in data set [1] (313.15 K), 1.736 ± 0.036 mPa·s.

In the case of `CCCCCCCCCCO` [decan-1-ol], the mass density in data set [1] (283.15 K) was determined as 836.6 ± 1.2 kg/m3; in data set [1] (293.15 K) it was 829.9 ± 1.2 kg/m3; in data set [1] (298.15 K), 826.5 ± 1.2 kg/m3; in data set [1] (303.15 K), 823 ± 1.2 kg/m3; in data set [1] (313.15 K), 816.2 ± 1.3 kg/m3. The viscosity is on record as 22.06 ± 0.45 mPa·s in data set [1] (283.15 K); 14.5 ± 0.3 mPa·s in data set [1] (293.15 K); 11.47 ± 0.24 mPa·s in data set [1] (298.15 K); 9.61 ± 0.2 mPa·s in data set [1] (303.15 K); 6.9 ± 0.14 mPa·s in data set [1] (313.15 K).

Consider `CCO` [ethanol], for which the mass density in data set [1] (283.15 K) is recorded as 798 ± 1.3 kg/m3; in data set [1] (293.15 K), 789.5 ± 1.4 kg/m3; in data set [1] (298.15 K), 785.2 ± 1.4 kg/m3; in data set [1] (303.15 K) it was 781.1 ± 1.4 kg/m3; in data set [1] (313.15 K) it was 772.3 ± 1.4 kg/m3. Moreover, the viscosity in data set [1] (283.15 K) is 1.475 ± 0.031 mPa·s; in data set [1] (293.15 K), 1.196 ± 0.025 mPa·s; in data set [1] (298.15 K) it was 1.102 ± 0.023 mPa·s; in data set [1] (303.15 K), 0.996 ± 0.021 mPa·s and 0.994 ± 0.021 mPa·s; in data set [1] (313.15 K), 0.842 ± 0.018 mPa·s.

Turning to `CCO` [ethanol] + CCCCCCCCCCO, the viscosity in data set [2] (283.15 K) is 1.475 ± 0.031 mPa·s; in data set [2] (293.15 K), 1.196 ± 0.025 mPa·s; in data set [2] (298.15 K), 1.102 ± 0.023 mPa·s; in data set [2] (303.15 K) it was 0.996 ± 0.021 mPa·s; in data set [2] (313.15 K) it was 0.842 ± 0.018 mPa·s. In addition, the mass density in data set [2] (283.15 K) was 798 ± 1.3 kg/m3; in data set [2] (293.15 K) it was 789.5 ± 1.4 kg/m3; in data set [2] (298.15 K) it was 785.2 ± 1.4 kg/m3; in data set [2] (303.15 K) it was 781.1 ± 1.4 kg/m3; in data set [2] (313.15 K), 772.3 ± 1.4 kg/m3.

For the molecule `CCO` [ethanol] + CCCCCCCCCO, the viscosity was 1.475 ± 0.031 mPa·s in data set [2] (283.15 K); 1.196 ± 0.025 mPa·s in data set [2] (293.15 K); 1.102 ± 0.023 mPa·s in data set [2] (298.15 K); 0.996 ± 0.021 mPa·s in data set [2] (303.15 K); 0.842 ± 0.018 mPa·s in data set [2] (313.15 K). Further, the mass density was 798 ± 1.3 kg/m3 in data set [2] (283.15 K); 789.5 ± 1.4 kg/m3 in data set [2] (293.15 K); 785.2 ± 1.4 kg/m3 in data set [2] (298.15 K); 781.1 ± 1.4 kg/m3 in data set [2] (303.15 K); 772.3 ± 1.4 kg/m3 in data set [2] (313.15 K).

`CCO` [ethanol] + CCCCCCCCO: the viscosity in data set [2] (283.15 K) was determined as 1.475 ± 0.031 mPa·s; in data set [2] (293.15 K), 1.196 ± 0.025 mPa·s; in data set [2] (298.15 K) it was 1.102 ± 0.023 mPa·s; in data set [2] (303.15 K), 0.994 ± 0.021 mPa·s; in data set [2] (313.15 K) it was 0.842 ± 0.018 mPa·s. Also, the mass density in data set [2] (283.15 K) is on record as 798 ± 1.3 kg/m3; in data set [2] (293.15 K), 789.5 ± 1.4 kg/m3; in data set [2] (298.15 K), 785.2 ± 1.4 kg/m3; in data set [2] (303.15 K), 781.1 ± 1.4 kg/m3; in data set [2] (313.15 K) it was 772.3 ± 1.4 kg/m3.

Consider `CCO` [ethanol] + CCCCCCCO, for which the viscosity in data set [2] (283.15 K) was found to be 1.475 ± 0.031 mPa·s; in data set [2] (293.15 K), 1.196 ± 0.025 mPa·s; in data set [2] (298.15 K), 1.102 ± 0.023 mPa·s; in data set [2] (303.15 K) it was 0.996 ± 0.021 mPa·s; in data set [2] (313.15 K), 0.842 ± 0.018 mPa·s. Also, the mass density in data set [2] (283.15 K) is given as 798 ± 1.3 kg/m3; in data set [2] (293.15 K), 789.5 ± 1.4 kg/m3; in data set [2] (298.15 K), 785.2 ± 1.4 kg/m3; in data set [2] (303.15 K) it was 781.1 ± 1.4 kg/m3; in data set [2] (313.15 K), 772.3 ± 1.4 kg/m3.

With `CCO` [ethanol] + CCCCCO, the viscosity is listed as 1.475 ± 0.031 mPa·s in data set [2] (283.15 K); 1.196 ± 0.025 mPa·s in data set [2] (293.15 K); 1.102 ± 0.023 mPa·s in data set [2] (298.15 K); 0.996 ± 0.021 mPa·s in data set [2] (303.15 K); 0.842 ± 0.018 mPa·s in data set [2] (313.15 K). For the same molecule, the mass density was found to be 798 ± 1.3 kg/m3 in data set [2] (283.15 K); 789.5 ± 1.4 kg/m3 in data set [2] (293.15 K); 785.2 ± 1.4 kg/m3 in data set [2] (298.15 K); 781.1 ± 1.4 kg/m3 in data set [2] (303.15 K); 772.3 ± 1.4 kg/m3 in data set [2] (313.15 K).

Consider `CCO` [ethanol] + CCCCO, for which the viscosity in data set [2] (283.15 K) came to 1.475 ± 0.031 mPa·s; in data set [2] (293.15 K) it was 1.196 ± 0.025 mPa·s; in data set [2] (298.15 K), 1.102 ± 0.023 mPa·s; in data set [2] (303.15 K), 0.996 ± 0.021 mPa·s; in data set [2] (313.15 K) it was 0.842 ± 0.018 mPa·s. In addition, the mass density in data set [2] (283.15 K) was 798 ± 1.3 kg/m3; in data set [2] (293.15 K), 789.5 ± 1.4 kg/m3; in data set [2] (298.15 K), 785.2 ± 1.4 kg/m3; in data set [2] (303.15 K) it was 781.1 ± 1.4 kg/m3; in data set [2] (313.15 K), 772.3 ± 1.4 kg/m3.

With `CCCCCCCO` [heptan-1-ol], the mass density in data set [1] (283.15 K) came to 829.6 ± 1.3 kg/m3; in data set [1] (293.15 K), 822.6 ± 1.3 kg/m3; in data set [1] (298.15 K), 819.1 ± 1.3 kg/m3; in data set [1] (303.15 K) it was 815.6 ± 1.3 kg/m3; in data set [1] (313.15 K), 808.4 ± 1.4 kg/m3. The viscosity came out at 10.15 ± 0.21 mPa·s in data set [1] (283.15 K); 7.026 ± 0.15 mPa·s in data set [1] (293.15 K); 5.947 ± 0.12 mPa·s in data set [1] (298.15 K); 5.041 ± 0.11 mPa·s in data set [1] (303.15 K); 3.802 ± 0.08 mPa·s in data set [1] (313.15 K).

Regarding `CCCCCCCCCO` [nonan-1-ol], the mass density in data set [1] (283.15 K) is 835 ± 1.3 kg/m3; in data set [1] (293.15 K), 828.1 ± 1.3 kg/m3; in data set [1] (298.15 K), 824.7 ± 1.3 kg/m3; in data set [1] (303.15 K) it was 821.3 ± 1.3 kg/m3; in data set [1] (313.15 K) it was 814.3 ± 1.4 kg/m3. In addition, the viscosity in data set [1] (283.15 K) amounted to 17.44 ± 0.36 mPa·s; in data set [1] (293.15 K), 11.63 ± 0.24 mPa·s; in data set [1] (298.15 K), 9.519 ± 0.2 mPa·s; in data set [1] (303.15 K), 7.806 ± 0.16 mPa·s; in data set [1] (313.15 K), 5.668 ± 0.12 mPa·s.

As to `CCCCCCCCO` [octan-1-ol], the mass density in data set [1] (283.15 K) is 832.1 ± 1.2 kg/m3; in data set [1] (293.15 K), 825.2 ± 1.2 kg/m3; in data set [1] (298.15 K), 821.9 ± 1.2 kg/m3; in data set [1] (303.15 K) it was 818.4 ± 1.3 kg/m3; in data set [1] (313.15 K) it was 811.4 ± 1.3 kg/m3. Further, the viscosity in data set [1] (283.15 K) worked out at 13.49 ± 0.28 mPa·s; in data set [1] (293.15 K), 9.016 ± 0.19 mPa·s; in data set [1] (298.15 K) it was 7.39 ± 0.15 mPa·s; in data set [1] (303.15 K) it was 6.306 ± 0.13 mPa·s; in data set [1] (313.15 K), 4.587 ± 0.095 mPa·s.

With `CCCCCO` [pentan-1-ol], the mass density in data set [1] (283.15 K) amounted to 822.1 ± 1.3 kg/m3; in data set [1] (293.15 K), 814.7 ± 1.3 kg/m3; in data set [1] (298.15 K), 811.2 ± 1.3 kg/m3; in data set [1] (303.15 K) it was 807.5 ± 1.3 kg/m3; in data set [1] (313.15 K) it was 800 ± 1.4 kg/m3. Moreover, the viscosity in data set [1] (283.15 K) is reported as 5.417 ± 0.11 mPa·s; in data set [1] (293.15 K), 3.974 ± 0.083 mPa·s; in data set [1] (298.15 K), 3.441 ± 0.072 mPa·s; in data set [1] (303.15 K), 2.99 ± 0.062 mPa·s; in data set [1] (313.15 K) it was 2.263 ± 0.047 mPa·s.
